Earlier results, collected in patent publication US20230404077A1, “METHODS AND FORMULATIONS FOR CONTROLLING FLEA INFESTATIONS” (EctoGuard, LLC, priority 2022, published 2023).

Tests used:
fleas [1] = settings: cats, topical
fleas [2] = settings: systemic / administered orally
fleas [3] = settings: cats

spinetoram
topically active dose, corresponding extrapolated value (fleas [1]): around 10 mg/kg
activity relative to spinosad (fleas [2]): 5.5 times

spinosad
commercial oral dose for effective control (≥90% mortality) (fleas [3]): 45 to 90 mg/kg
